Data as given in the supplement of paper PMC10307832.

Experiments:
Assay in all cases: relative viability (nuclei count vs DMSO), 5 days (fraction); higher = more cells survive
[1] = compound: COc1cc2nc(N3CCCN(C)CC3)nc(NC3CCN(Cc4ccccc4)CC3)c2cc1OC + CS(=O)(=O)CCNCc1ccc(-c2ccc3ncnc(Nc4ccc(OCc5cccc(F)c5)c(Cl)c4)c3c2)o1 [Lapatinib] (partner 2 µM)
In short: (§1)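 A single step with final 0.05% Triton X-100, 1% formaldehyde and 1 ug/ml Hoechst fixed the cells and stained nuclei 5 days after treatment. Lung cancer cell lines in 1536-well plates had been treated by pin tool the day after seeding with one drug alone or a fixed anchor-drug dose plus five library-drug doses (not always all listed) in √10 steps, and nuclei were counted on 4× images. Relative viability is the ratio of nuclei in treated wells to nuclei in vehicle wells, taken as the median of duplicate plates.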

[2] = compound: COc1cc2nc(N3CCCN(C)CC3)nc(NC3CCN(Cc4ccccc4)CC3)c2cc1OC + O=C(c1cc(Cc2n[nH]c(=O)c3ccccc23)ccc1F)N1CCN(C(=O)C2CC2)CC1 [Olaparib] (partner 8 µM)
In short: as §1

AZD6482 + Tozasertib = compound: Cc1cc([C@@H](C)Nc2ccccc2C(=O)O)c2nc(N3CCOCC3)cc(=O)n2c1 [AZD6482] + Cc1cc(Nc2cc(N3CCN(C)CC3)nc(Sc3ccc(NC(=O)C4CC4)cc3)n2)n[nH]1 [Tozasertib] (partner 0.1 µM)
In short: as §1

AZD6482 + Decitabine = compound: Cc1cc([C@@H](C)Nc2ccccc2C(=O)O)c2nc(N3CCOCC3)cc(=O)n2c1 [AZD6482] + Nc1ncn([C@H]2C[C@H](O)[C@@H](CO)O2)c(=O)n1 [Decitabine] (partner 2 µM)
In short: as §1

Cell Line: NCI-H1915
- relative viability ([1]; first compound 0.2 µM): 1.01
- relative viability ([1]; first compound 0.6325 µM): 0.875
- relative viability ([1]; first compound 2 µM): 1.02
- relative viability ([1]; first compound 6.325 µM): 0.956
- relative viability ([2]; first compound 0.2 µM): 0.243
- relative viability ([2]; first compound 0.6325 µM): 0.267
- relative viability ([2]; first compound 2 µM): 0.272
- relative viability ([2]; first compound 6.325 µM): 0.251
- relative viability (AZD6482 + Tozasertib; first compound 0.08 µM): 0.453
- relative viability (AZD6482 + Tozasertib; first compound 0.253 µM): 0.346
- relative viability (AZD6482 + Tozasertib; first compound 0.8 µM): 0.417
- relative viability (AZD6482 + Tozasertib; first compound 2.53 µM): 0.426
- relative viability (AZD6482 + Tozasertib; first compound 8 µM): 0.371
- relative viability (AZD6482 + Decitabine; first compound 0.08 µM): 0.278
- relative viability (AZD6482 + Decitabine; first compound 0.253 µM): 0.255
- relative viability (AZD6482 + Decitabine; first compound 0.8 µM): 0.263
- relative viability (AZD6482 + Decitabine; first compound 2.53 µM): 0.247
- relative viability (AZD6482 + Decitabine; first compound 8 µM): 0.23

Cell Line: NCI-H1944
- relative viability ([1]; first compound 0.2 µM): 0.778
- relative viability ([1]; first compound 0.6325 µM): 0.961
- relative viability ([1]; first compound 6.325 µM): 0.762
- relative viability ([2]; first compound 0.2 µM): 0.416
- relative viability ([2]; first compound 0.6325 µM): 0.436
- relative viability ([2]; first compound 2 µM): 0.397
- relative viability ([2]; first compound 6.325 µM): 0.396
- relative viability (AZD6482 + Tozasertib; first compound 0.08 µM): 0.238
- relative viability (AZD6482 + Tozasertib; first compound 0.253 µM): 0.242
- relative viability (AZD6482 + Tozasertib; first compound 0.8 µM): 0.217
- relative viability (AZD6482 + Tozasertib; first compound 2.53 µM): 0.206
- relative viability (AZD6482 + Tozasertib; first compound 8 µM): 0.189
- relative viability (AZD6482 + Decitabine; first compound 0.08 µM): 0.446
- relative viability (AZD6482 + Decitabine; first compound 0.253 µM): 0.37
- relative viability (AZD6482 + Decitabine; first compound 0.8 µM): 0.521
- relative viability (AZD6482 + Decitabine; first compound 2.53 µM): 0.446
- relative viability (AZD6482 + Decitabine; first compound 8 µM): 0.435

Cell Line: NCI-H1975
- relative viability ([1]; first compound 0.2 µM): 0.93
- relative viability ([1]; first compound 0.6325 µM): 0.968
- relative viability ([1]; first compound 2 µM): 1.01
- relative viability ([1]; first compound 6.325 µM): 0.881
- relative viability ([2]; first compound 0.2 µM): 0.761
- relative viability ([2]; first compound 0.6325 µM): 0.755
- relative viability ([2]; first compound 2 µM): 0.915
- relative viability ([2]; first compound 6.325 µM): 0.823
- relative viability (AZD6482 + Tozasertib; first compound 0.08 µM): 0.624
- relative viability (AZD6482 + Tozasertib; first compound 0.253 µM): 0.717
- relative viability (AZD6482 + Tozasertib; first compound 0.8 µM): 0.701
- relative viability (AZD6482 + Tozasertib; first compound 2.53 µM): 0.629
- relative viability (AZD6482 + Tozasertib; first compound 8 µM): 0.463
- relative viability (AZD6482 + Decitabine; first compound 0.08 µM): 0.351
- relative viability (AZD6482 + Decitabine; first compound 0.253 µM): 0.392
- relative viability (AZD6482 + Decitabine; first compound 0.8 µM): 0.385
- relative viability (AZD6482 + Decitabine; first compound 2.53 µM): 0.354
- relative viability (AZD6482 + Decitabine; first compound 8 µM): 0.345

Cell Line: NCI-H1993
- relative viability ([1]; first compound 0.2 µM): 0.684
- relative viability ([1]; first compound 0.6325 µM): 0.907
- relative viability ([1]; first compound 2 µM): 0.834
- relative viability ([1]; first compound 6.325 µM): 0.751
- relative viability ([2]; first compound 0.2 µM): 1.03
- relative viability ([2]; first compound 0.6325 µM): 1.05
- relative viability ([2]; first compound 2 µM): 1.14
- relative viability ([2]; first compound 6.325 µM): 1.2
- relative viability (AZD6482 + Tozasertib; first compound 0.08 µM): 0.446
- relative viability (AZD6482 + Tozasertib; first compound 0.253 µM): 0.609
- relative viability (AZD6482 + Tozasertib; first compound 0.8 µM): 0.55
- relative viability (AZD6482 + Tozasertib; first compound 2.53 µM): 0.527
- relative viability (AZD6482 + Tozasertib; first compound 8 µM): 0.562
- relative viability (AZD6482 + Decitabine; first compound 0.08 µM): 0.526
- relative viability (AZD6482 + Decitabine; first compound 0.253 µM): 0.481
- relative viability (AZD6482 + Decitabine; first compound 0.8 µM): 0.598
- relative viability (AZD6482 + Decitabine; first compound 2.53 µM): 0.436
- relative viability (AZD6482 + Decitabine; first compound 8 µM): 0.458

Cell Line: NCI-H2009
- relative viability ([1]; first compound 0.2 µM): 0.871
- relative viability ([1]; first compound 0.6325 µM): 0.888
- relative viability ([1]; first compound 2 µM): 1.08
- relative viability ([1]; first compound 6.325 µM): 0.901
- relative viability ([2]; first compound 0.2 µM): 0.703
- relative viability ([2]; first compound 0.6325 µM): 0.706
- relative viability ([2]; first compound 2 µM): 0.691
- relative viability ([2]; first compound 6.325 µM): 0.631
- relative viability (AZD6482 + Tozasertib; first compound 0.08 µM): 0.677
- relative viability (AZD6482 + Tozasertib; first compound 0.253 µM): 0.733
- relative viability (AZD6482 + Tozasertib; first compound 0.8 µM): 0.637
- relative viability (AZD6482 + Tozasertib; first compound 2.53 µM): 0.503
- relative viability (AZD6482 + Tozasertib; first compound 8 µM): 0.521
- relative viability (AZD6482 + Decitabine; first compound 0.08 µM): 0.387
- relative viability (AZD6482 + Decitabine; first compound 0.253 µM): 0.373
- relative viability (AZD6482 + Decitabine; first compound 0.8 µM): 0.361
- relative viability (AZD6482 + Decitabine; first compound 2.53 µM): 0.321
- relative viability (AZD6482 + Decitabine; first compound 8 µM): 0.342

Cell Line: NCI-H2023
- relative viability ([1]; first compound 0.2 µM): 0.87
- relative viability ([1]; first compound 0.6325 µM): 0.836
- relative viability ([1]; first compound 2 µM): 0.961
- relative viability ([1]; first compound 6.325 µM): 0.115
- relative viability ([2]; first compound 0.2 µM): 0.424
- relative viability ([2]; first compound 0.6325 µM): 0.476
- relative viability ([2]; first compound 2 µM): 0.48
- relative viability ([2]; first compound 6.325 µM): 0.177
- relative viability (AZD6482 + Tozasertib; first compound 0.08 µM): 0.367
- relative viability (AZD6482 + Tozasertib; first compound 0.253 µM): 0.336
- relative viability (AZD6482 + Tozasertib; first compound 0.8 µM): 0.286
- relative viability (AZD6482 + Tozasertib; first compound 2.53 µM): 0.289
- relative viability (AZD6482 + Tozasertib; first compound 8 µM): 0.279
- relative viability (AZD6482 + Decitabine; first compound 0.08 µM): 0.226
- relative viability (AZD6482 + Decitabine; first compound 0.253 µM): 0.185
- relative viability (AZD6482 + Decitabine; first compound 0.8 µM): 0.214
- relative viability (AZD6482 + Decitabine; first compound 2.53 µM): 0.269
- relative viability (AZD6482 + Decitabine; first compound 8 µM): 0.179

Cell Line: NCI-H2085
- relative viability ([1]; first compound 0.2 µM): 0.698
- relative viability ([1]; first compound 0.6325 µM): 0.772
- relative viability ([1]; first compound 2 µM): 0.798
- relative viability ([1]; first compound 6.325 µM): 0.605
- relative viability ([2]; first compound 0.2 µM): 0.775
- relative viability ([2]; first compound 0.6325 µM): 0.82
- relative viability ([2]; first compound 2 µM): 0.869
- relative viability ([2]; first compound 6.325 µM): 0.785
- relative viability (AZD6482 + Tozasertib; first compound 0.08 µM): 0.656
- relative viability (AZD6482 + Tozasertib; first compound 0.253 µM): 0.539
- relative viability (AZD6482 + Tozasertib; first compound 0.8 µM): 0.407
- relative viability (AZD6482 + Tozasertib; first compound 2.53 µM): 0.393
- relative viability (AZD6482 + Tozasertib; first compound 8 µM): 0.351
- relative viability (AZD6482 + Decitabine; first compound 0.08 µM): 0.485
- relative viability (AZD6482 + Decitabine; first compound 0.253 µM): 0.456
- relative viability (AZD6482 + Decitabine; first compound 0.8 µM): 0.471
- relative viability (AZD6482 + Decitabine; first compound 2.53 µM): 0.357
- relative viability (AZD6482 + Decitabine; first compound 8 µM): 0.403

Cell Line: NCI-H2087
- relative viability ([1]; first compound 0.2 µM): 1.18
- relative viability ([1]; first compound 0.6325 µM): 0.744
- relative viability ([1]; first compound 2 µM): 1.08
- relative viability ([1]; first compound 6.325 µM): 0.964
- relative viability ([2]; first compound 0.2 µM): 0.633
- relative viability ([2]; first compound 0.6325 µM): 0.615
- relative viability ([2]; first compound 2 µM): 0.706
- relative viability ([2]; first compound 6.325 µM): 0.594
- relative viability (AZD6482 + Tozasertib; first compound 0.08 µM): 0.282
- relative viability (AZD6482 + Tozasertib; first compound 0.253 µM): 0.268
- relative viability (AZD6482 + Tozasertib; first compound 0.8 µM): 0.221
- relative viability (AZD6482 + Tozasertib; first compound 8 µM): 0.205
- relative viability (AZD6482 + Decitabine; first compound 0.08 µM): 0.245
- relative viability (AZD6482 + Decitabine; first compound 0.253 µM): 0.232
- relative viability (AZD6482 + Decitabine; first compound 0.8 µM): 0.266
- relative viability (AZD6482 + Decitabine; first compound 2.53 µM): 0.208
- relative viability (AZD6482 + Decitabine; first compound 8 µM): 0.215

Cell Line: NCI-H2126
- relative viability ([1]; first compound 0.2 µM): 0.74
- relative viability ([1]; first compound 0.6325 µM): 0.742
- relative viability ([1]; first compound 2 µM): 0.796
- relative viability ([1]; first compound 6.325 µM): 0.732
- relative viability ([2]; first compound 0.2 µM): 1.01
- relative viability ([2]; first compound 0.6325 µM): 0.892
- relative viability ([2]; first compound 2 µM): 0.883
- relative viability ([2]; first compound 6.325 µM): 0.919
- relative viability (AZD6482 + Tozasertib; first compound 0.08 µM): 0.786
- relative viability (AZD6482 + Tozasertib; first compound 0.253 µM): 0.804
- relative viability (AZD6482 + Tozasertib; first compound 0.8 µM): 0.669
- relative viability (AZD6482 + Tozasertib; first compound 2.53 µM): 0.423
- relative viability (AZD6482 + Tozasertib; first compound 8 µM): 0.561
- relative viability (AZD6482 + Decitabine; first compound 0.08 µM): 0.56
- relative viability (AZD6482 + Decitabine; first compound 0.253 µM): 0.565
- relative viability (AZD6482 + Decitabine; first compound 0.8 µM): 0.49
- relative viability (AZD6482 + Decitabine; first compound 2.53 µM): 0.494
- relative viability (AZD6482 + Decitabine; first compound 8 µM): 0.465
